Where a name gives a salt, the structure may show the parent alone.
Each compound was assayed against T1, PDE10A (human) (Homo sapiens, UniProt Q9Y233) (assay: Measurement of PDE activity (HTRF cAMP kit), human PDE10A). Conditions: PDE enzymatic reaction, substrate 20 nM for PDE10, 60 minutes at 29 C.
T1 construct: purchased BPS Bioscience
Format: biochemical
Description: The recombinant PDE proteins are used in in vitro enzymatic reaction for measurement of PDE activity. These recombinant proteins, including PDE10A (human, rat and mouse PDE10) and isoforms of PDEs 1, 3, 4, and 5, were purchased from commercial vendor BPS Bioscience. The enzymatic activity of PDEs was determined by cAMP measurement kit from CisBio (IBA) using HTRF technology.
The PDE enzymatic reaction was carried out in assay buffer (20 mM Tris-HCl pH7.5, 10 mM MgCl2, 0.1% bovine serum albumin) containing enzyme and substrate. The PDE enzymes concentration ranged from 10 pM-250 pM, depending on each enzyme's specific activity. The substrate cyclic nucleotide (cAMP or cGMP) concentration used in the assay was 20 nM for PDE10, and 100 nM for other PDEs. The inhibitory effect of compound was determined by incubating various concentration of inhibitor in the enzymatic assay. Typically, compound was serial diluted in DMSO then further diluted in assay buffer. Next, the compound at varying concentration was mixed with PDE enzyme. The reaction was initiated by addition of cyclic nucleotide substrate, and incubated for 60 minutes at 29 C. The reaction was stopped by addition of lysis buffer from assay kit. The cAMP-d2 and anti-cAMP cryptate in the lysis buffer detected the level of cAMP left from the PDE hydrolysis reaction. The PDE activity is reversely correlated with the amount of cAMP left in the reaction and can be converted to the percent activity of an uninhibited control (100%). Thus, IC50 value of inhibitor can be obtained by plotting inhibitor concentration against PDE activity at that concentration.

T1 sequence (Q9Y233 whole entry): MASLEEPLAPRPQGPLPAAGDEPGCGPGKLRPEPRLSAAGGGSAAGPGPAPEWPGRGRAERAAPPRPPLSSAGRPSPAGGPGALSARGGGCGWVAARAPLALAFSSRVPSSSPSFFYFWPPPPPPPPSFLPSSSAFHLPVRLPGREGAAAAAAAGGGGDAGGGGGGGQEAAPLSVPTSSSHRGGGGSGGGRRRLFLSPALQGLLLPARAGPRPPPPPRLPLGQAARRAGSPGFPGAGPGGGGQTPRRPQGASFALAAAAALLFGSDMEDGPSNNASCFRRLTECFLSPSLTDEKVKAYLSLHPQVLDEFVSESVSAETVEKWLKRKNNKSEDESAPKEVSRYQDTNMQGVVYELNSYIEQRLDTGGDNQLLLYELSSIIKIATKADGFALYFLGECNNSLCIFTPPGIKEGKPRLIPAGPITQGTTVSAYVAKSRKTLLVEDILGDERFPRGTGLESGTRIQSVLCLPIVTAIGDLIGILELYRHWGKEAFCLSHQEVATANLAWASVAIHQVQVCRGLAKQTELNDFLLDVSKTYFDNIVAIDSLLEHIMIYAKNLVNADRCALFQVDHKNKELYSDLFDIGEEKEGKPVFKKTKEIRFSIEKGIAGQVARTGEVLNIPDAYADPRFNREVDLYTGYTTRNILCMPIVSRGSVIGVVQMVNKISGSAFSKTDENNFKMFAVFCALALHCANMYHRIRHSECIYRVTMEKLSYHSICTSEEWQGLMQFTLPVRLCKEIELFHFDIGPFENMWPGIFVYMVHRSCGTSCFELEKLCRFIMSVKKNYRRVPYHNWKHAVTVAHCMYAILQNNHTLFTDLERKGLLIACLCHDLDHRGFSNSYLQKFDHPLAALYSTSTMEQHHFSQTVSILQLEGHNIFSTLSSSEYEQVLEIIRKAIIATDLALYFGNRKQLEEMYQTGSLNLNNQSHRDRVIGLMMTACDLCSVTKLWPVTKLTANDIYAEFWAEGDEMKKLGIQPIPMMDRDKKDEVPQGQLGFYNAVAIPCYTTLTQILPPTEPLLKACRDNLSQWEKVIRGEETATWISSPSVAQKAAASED

SMILES | IC50 [nM]
O=C1c2c(cccc2-c2ccc3[nH]ncc3c2)CN1CCc1ccc2ccccc2n1 [Example 93, 7-(1H-Indazol-5-yl)-2-(2-quinolin-2-yl-ethyl)-2,3-dihydro-isoindol-1-one] | 200 to 500
O=C1c2c(cccc2-c2ccnc(Cl)c2)CN1CCc1ccc2ccccc2n1 [Example 171, 7-(2-Chloro-pyridin-4-yl)-2-(2-quinolin-2-yl-ethyl)-2,3-dihydro-isoindol-1-one trifluoroacetate] | 100 to 200
O=C1c2c(-c3ccncc3)ccc(OC(F)F)c2CN1CCc1ccc2ccccc2n1 [Example 268, 4-Difluoromethoxy-7-pyridin-4-yl-2-(2-quinolin-2-yl-ethyl)-2,3-dihydro-isoindol-1-one] | < 100
O=C1c2c(cccc2-c2ccc3cn[nH]c3c2)CN1CCc1ccc2ccccc2n1 [Example 97, 7-(1H-Indazol-6-yl)-2-(2-quinolin-2-yl-ethyl)-2,3-dihydro-isoindol-1-one] | < 100
Cn1cncc1-c1cccc2c1C(=O)N(CCc1ccc3ccccc3n1)C2 [Example 94, 7-(3-Methyl-3H-imidazol-4-yl)-2-(2-quinolin-2-yl-ethyl)-2,3-dihydro-isoindol-1-one] | 200 to 500
O=C1c2c(cccc2-c2ccncc2Cl)CN1CCc1ccc2ccccc2n1 [Example 170, 7-(3-Chloro-pyridin-4-yl)-2-(2-quinolin-2-yl-ethyl)-2,3-dihydro-isoindol-1-one trifluoroacetate] | < 100
O=C1c2c(cccc2-c2ccc(F)cc2F)CN1CCc1ccc2ccccc2n1 [Example 45, 7-(2,4-Difluoro-phenyl)-2-(2-quinolin-2-yl-ethyl)-2,3-dihydro-isoindol-1-one] | 100 to 200
CNCOc1ccc(-c2ccncc2)c2c1CN(CCc1ccc3ccccc3n1)C2=O [Example 276, 4-Methylaminomethoxy-7-pyridin-4-yl-2-(2-quinolin-2-yl-ethyl)-2,3-dihydro-isoindol-1-one] | < 100
CCc1csc(CCN2Cc3nccc(-c4ccncc4)c3C2=O)n1 [compound 407, 6-[2-(4-Ethylthiazol-2-yl)ethyl]-4-(4-pyridyl)-7H-pyrrolo[3,4-b]pyridin-5-one] | < 100
O=C1c2c(N3CC4COCC4C3)ccnc2CN1CCc1ccc2ccccc2n1 (stereo not shown) [Example 260, 6-(2-Quinolin-2-yl-ethyl)-4-(tetrahydro-furo[3,4-c]pyrrol-5-yl)-6,7-dihydro-pyrrolo[3,4-b]pyridin-5-one] | < 100
COc1cnccc1-c1cccc2c1C(=O)N(CCc1ccc3ccccc3n1)C2 [Example 169, 7-(3-Methoxy-pyridin-4-yl)-2-(2-quinolin-2-yl-ethyl)-2,3-dihydro-isoindol-1-one trifluoroacetate] | 100 to 200
O=C1c2c(-c3ccncc3)ccc(F)c2CN1CCc1ccc2ccccc2n1 [Example 16, 4-Fluoro-7-pyridin-4-yl-2-(2-quinolin-2-yl-ethyl)-2,3-dihydro-isoindol-1-one] | < 100
O=C1c2c(NC3COC3)ccc(F)c2CN1CCc1ccc2ccccc2n1 [compound 437, 4-Fluoro-7-(oxetan-3-ylamino)-2-[2-(2-quinolyl)ethyl]isoindolin-1-one] | < 100
O=C1c2c(cccc2OCc2cccnc2)CN1CCc1ccc2ccccc2n1 [Example 127, 7-(Pyridin-3-ylmethoxy)-2-(2-quinolin-2-yl-ethyl)-2,3-dihydro-isoindol-1-one] | 100 to 200
O=C1c2cccc(-c3cccnc3)c2CN1CCc1ccc2ccccc2n1 [Example 201, 4-Pyridin-3-yl-2-(2-quinolin-2-yl-ethyl)-2,3-dihydro-isoindol-1-one] | < 100
O=C1c2c(cccc2-c2ccsc2)CN1CCc1ccc2ccccc2n1 [Example 25, 2-(2-Quinolin-2-yl-ethyl)-7-thiophen-3-yl-2,3-dihydro-isoindol-1-one] | 100 to 200
Cn1nccc1-c1cccc2c1C(=O)N(CCc1ccc3ccccc3n1)C2 [Example 74, 7-(2-Methyl-2H-pyrazol-3-yl)-2-(2-quinolin-2-yl-ethyl)-2,3-dihydro-isoindol-1-one] | < 100

Next, values leading:

IC50 [nM] | SMILES
< 100 | CC(C)Oc1ccc(-c2ccncc2)c2c1CN(CCc1ccc3ccccc3n1)C2=O [Example 205, 4-Isopropoxy-7-pyridin-4-yl-2-(2-quinolin-2-yl-ethyl)-2,3-dihydro-isoindol-1-one]
< 100 | O=C1c2c(cccc2-c2ccncc2F)CN1CCc1ccc2ccccc2n1 [Example 173, 7-(3-Fluoro-pyridin-4-yl)-2-(2-quinolin-2-yl-ethyl)-2,3-dihydro-isoindol-1-one]
200 to 500 | O=C1c2c(cccc2-c2nccs2)CN1CCc1ccc2ccccc2n1 [Example 82, 2-(2-Quinolin-2-yl-ethyl)-7-thiazol-2-yl-2,3-dihydro-isoindol-1-one]
< 100 | O=C1c2c(-c3ccncc3)ccnc2CN1CCc1nc(C2CC2)cs1 [compound 517, 6-[2-(4-Cyclopropylthiazol-2-yl)ethyl]-4-(4-pyridyl)-7H-pyrrolo[3,4-b]pyridin-5-one]
200 to 500 | COc1cncc(-c2cccc3c2CN(CCc2ccc4ccccc4n2)C3=O)n1 [Example 356, 4-(6-Methoxy-pyrazin-2-yl)-2-(2-quinolin-2-yl-ethyl)-2,3-dihydro-isoindol-1-one]
< 100 | CCCn1c(CCN2Cc3cccc(-c4ccncc4)c3C2=O)nc2ccccc21 [Example 302, 2-[2-(1-Propyl-1H-benzoimidazol-2-yl)-ethyl]-7-pyridin-4-yl-2,3-dihydro-isoindol-1-one trifluoroacetate]
< 100 | O=C1c2c(-c3ccncc3)ccc(OCCF)c2CN1CCc1ccc2ccccc2n1 [compound 533, 4-(2-Fluoro-ethoxy)-7-pyridin-4-yl-2-(2-quinolin-2-yl-ethyl)-2,3-dihydro-isoindol-1-one]
< 100 | O=C1c2c(cccc2-c2cnc[nH]2)CN1CCc1ccc2ccccc2n1 [Example 84, 7-(3H-Imidazol-4-yl)-2-(2-quinolin-2-yl-ethyl)-2,3-dihydro-isoindol-1-one]
< 100 | O=C1c2cccc(-c3cn[nH]c3)c2CN1CCc1ccc2ccccc2n1 [Example 225, 4-(1H-Pyrazol-4-yl)-2-(2-quinolin-2-yl-ethyl)-2,3-dihydro-isoindol-1-one]
< 100 | O=C1c2c(-c3ccncc3F)ccnc2CN1CCc1ccc2ccccc2n1 [compound 412, 4-(3-Fluoro-pyridin-4-yl)-6-(2-quinolin-2-yl-ethyl)-6,7-dihydro-pyrrolo[3,4-b]pyridin-5-one]
< 100 | Cc1ccc2ccc(CCN3Cc4nccc(N5CCOCC5)c4C3=O)nc2c1 [compound 392, 6-[2-(7-Methyl-2-quinolyl)ethyl]-4-morpholino-7H-pyrrolo[3,4-b]pyridin-5-one]
< 100 | O=C1c2c(cccc2N2CCC(F)(F)CC2)CN1CCc1ccc2ccccc2n1 [Example 143, 7-(4,4-Difluoro-piperidin-1-yl)-2-(2-quinolin-2-yl-ethyl)-2,3-dihydro-isoindol-1-one]
200 to 500 | Cc1noc(C)c1-c1cccc2c1CN(CCc1ccc3ccccc3n1)C2=O [Example 349, 4-(3,5-Dimethyl-isoxazol-4-yl)-2-(2-quinolin-2-yl-ethyl)-2,3-dihydro-isoindol-1-one]
100 to 200 | CC1(C)c2cccc(-c3ccncc3)c2C(=O)N1CCc1ccc2ccccc2n1 [Example 6, 3,3-Dimethyl-7-pyridin-4-yl-2-(2-quinolin-2-yl-ethyl)-2,3-dihydro-isoindol-1-one]
